Results reported in ChEMBL document CHEMBL1134255, “Synthesis and evaluation of efavirenz (Sustiva) analogues as HIV-1 reverse transcriptase inhibitors: replacement of the cyclopropylacetylene side chain” (2001).

Key:
[1] = system: Human immunodeficiency virus 1; experiment: Antiviral activity was evaluated against wild-type HIV-1 virus; format: functional
[2] = system: Human immunodeficiency virus type 1 reverse transcriptase (Human immunodeficiency virus 1), Q72547 [K103N]

Compound | IC90 [1] [nM] | IC90 [2] [nM]
O=C1Nc2ccc(Cl)cc2C(C#Cc2cncs2)(C(F)(F)F)O1 (stereo not drawn) | 6.69 | –
O=C1Nc2ccc(Cl)cc2C(OCCC2CC2)(C(F)(F)F)O1 (stereo not drawn) | 8.04 | –
CC(C)=CCOC1(C(F)(F)F)OC(=O)Nc2ccc(F)cc21 (stereo not drawn) | 2.98 | 107
O=C1Nc2ccc(Cl)cc2C(OCCc2ccccc2)(C(F)(F)F)O1 (stereo not drawn) | 167 | –
O=C1Nc2ccc(Cl)cc2C(C#Cc2ccco2)(C(F)(F)F)O1 (stereo not drawn) | 3.8 | 152
O=C1Nc2ccc(F)cc2C(C#Cc2cccs2)(C(F)(F)F)O1 (stereo not drawn) | 2.93 | –
O=C1Nc2ccc(Cl)cc2C(C#Cc2ccncc2)(C(F)(F)F)O1 (stereo not drawn) | 102 | –
O=C1Nc2ccc(F)c(F)c2C(C#Cc2cccnc2)(C(F)(F)F)O1 (stereo not drawn) | 2.23 | 59.3
O=C1Nc2ccc(F)c(F)c2C(C#Cc2ccoc2)(C(F)(F)F)O1 (stereo not drawn) | 3.21 | 280
O=C1Nc2ccc(F)c(F)c2C(C#Cc2cccs2)(C(F)(F)F)O1 (stereo not drawn) | 2.23 | 156
C/C=C/COC1(C(F)(F)F)OC(=O)Nc2ccc(F)cc21 (stereo not drawn) | 8.85 | 1150
O=C1Nc2ccc(Cl)cc2C(OCC=C(Cl)Cl)(C(F)(F)F)O1 (stereo not drawn) | 9.5 | 242
O=C1Nc2ccc(F)c(F)c2C(C#Cc2ccccn2)(C(F)(F)F)O1 (stereo not drawn) | 6.78 | –
O=C1Nc2ccc(Cl)cc2C(C#Cc2ccoc2)(C(F)(F)F)O1 (stereo not drawn) | 3.8 | 322
CC#CCOC1(C(F)(F)F)OC(=O)Nc2ccc(Cl)cc21 (stereo not drawn) | 3.13 | 310
O=C1Nc2ccc(F)cc2C(C#Cc2ccco2)(C(F)(F)F)O1 (stereo not drawn) | 2.58 | –
CCCCOC1(C(F)(F)F)OC(=O)Nc2ccc(Cl)cc21 (stereo not drawn) | 10.2 | 989
O=C1Nc2ccc(F)c(F)c2C(OCC=C(Cl)Cl)(C(F)(F)F)O1 (stereo not drawn) | 6.35 | 183
CC(C)CCOC1(C(F)(F)F)OC(=O)Nc2ccc(Cl)cc21 (stereo not drawn) | 10.1 | 286
O=C1Nc2ccc(F)c(F)c2C(C#Cc2ccco2)(C(F)(F)F)O1 (stereo not drawn) | 3.79 | –
O=C1Nc2ccc(Cl)cc2C(OCc2ccccc2)(C(F)(F)F)O1 (stereo not drawn) | 17.9 | –
O=C1Nc2ccc(F)cc2C(OCC=C(Cl)Cl)(C(F)(F)F)O1 (stereo not drawn) | 11.9 | –

Compound | IC90 [1] [nM] | IC90 [2] [nM]
C=CCCOC1(C(F)(F)F)OC(=O)Nc2ccc(Cl)cc21 (stereo not drawn) | 13.7 | –
O=C1Nc2ccc(Cl)cc2C(C#Cc2cccnc2)(C(F)(F)F)O1 (stereo not drawn) | 3.97 | 145
N#CCCOC1(C(F)(F)F)OC(=O)Nc2ccc(Cl)cc21 (stereo not drawn) | > 1500 | –
C=CCOC1(C(F)(F)F)OC(=O)Nc2ccc(F)c(F)c21 (stereo not drawn) | 6.47 | 1620
COCCOC1(C(F)(F)F)OC(=O)Nc2ccc(Cl)cc21 (stereo not drawn) | 61.4 | –
O=C1Nc2ccc(F)c(F)c2C(C#Cc2ccsc2)(C(F)(F)F)O1 (stereo not drawn) | 2.34 | 139
C/C=C\COC1(C(F)(F)F)OC(=O)Nc2ccc(Cl)cc21 (stereo not drawn) | 4.35 | 237
CCCOC1(C(F)(F)F)OC(=O)Nc2ccc(Cl)cc21 (stereo not drawn) | 5.81 | –
O=C1Nc2ccc(F)cc2C(C#Cc2ccccn2)(C(F)(F)F)O1 (stereo not drawn) | 12.2 | –
O=C1Nc2ccc(Cl)cc2C(OCc2cccnc2)(C(F)(F)F)O1 (stereo not drawn) | 75.3 | –
O=C1Nc2ccc(F)cc2C(C#Cc2ccsc2)(C(F)(F)F)O1 (stereo not drawn) | 2.55 | 193
CC(C)=CCOC1(C(F)(F)F)OC(=O)Nc2ccc(Cl)cc21 (stereo not drawn) | 2.68 | 83
C/C=C/COC1(C(F)(F)F)OC(=O)Nc2ccc(Cl)cc21 (stereo not drawn) | 5.6 | 404
O=C1Nc2ccc(Cl)cc2C(C#Cc2ccsc2)(C(F)(F)F)O1 (stereo not drawn) | 4.47 | 106
O=C1Nc2ccc(F)cc2C(C#Cc2ccoc2)(C(F)(F)F)O1 (stereo not drawn) | 2.52 | 369
C=CCOC1(C(F)(F)F)OC(=O)Nc2ccc(Cl)cc21 (stereo not drawn) | 3.9 | –
O=C1Nc2ccc(Cl)cc2C(OCC(F)(F)C(F)(F)F)(C(F)(F)F)O1 (stereo not drawn) | 651 | –
O=C1Nc2ccc(Cl)cc2C(C#Cc2ccccn2)(C(F)(F)F)O1 (stereo not drawn) | 5.39 | 1110
O=C1Nc2ccc(Cl)cc2C(OCC2CC2)(C(F)(F)F)O1 (stereo not drawn) | 7.7 | –
O=C1Nc2ccc(F)cc2C(C#Cc2cccnc2)(C(F)(F)F)O1 (stereo not drawn) | 2.56 | 329
CC(C)=CCOC1(C(F)(F)F)OC(=O)Nc2ccc(F)c(F)c21 (stereo not drawn) | 1.54 | 65
CCOC1(C(F)(F)F)OC(=O)Nc2ccc(Cl)cc21 (stereo not drawn) | 18.3 | –
